From patent US20130296311A1, “INHIBITORS OF HCV NS5A” (PRESIDIO PHARMACEUTICALS, INC., priority 2010, published 2013) come the findings set out here.

Each structure is given as a SMILES string. pEC50: −log10 of the molar value. A value given as a limit tells only on which side of the number the result lay.

In one test the test system is HCV 1b_Huh-Luc/Neo-ET cell line persistently expressing a bicistronic genotype 1b replicon in Huh 7 cells. The experiment in a line: HCV replicon assay (luciferase readout, 72 h). The class given is cell-based, HCV genotype 1b. As to conditions: Hepatitis C virus, Huh-7, 72 h, read-out: Inhibition of HCV genotype 1b. Put shortly: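 Huh 7 cells carrying a bicistronic genotype 1b luciferase/neo replicon received compound in triplicate the day after plating. After 72 h, replicon levels were read as Bright-Glo luciferase activity, expressed as % of control; EC50 was fitted with a four-parameter logistic and determined several times.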
Turning to `COC(=O)N[C@H](C(=O)N1CCC[C@H]1c1ncc(-c2ccc(C#Cc3ccc(-c4cnc([C@@H]5CCCN5C(=O)[C@@H](c5ccccc5)N(C)C)[nH]4)cc3)cc2)[nH]1)C(C)C` [Compound 955], the pEC50 is above 9.00.
Take `COC(=O)N[C@H](C(=O)N1CCC[C@H]1c1ncc(-c2ccc(C#Cc3ccc(-c4cnc([C@@H]5CCCN5C(=O)[C@H](NC(=O)N5CCC(C)(O)CC5)c5ccccc5)[nH]4)cc3)cc2)[nH]1)C(C)C` [Compound 992]: the pEC50 was above 9.00.
For `CC(C)[C@H](NC(=O)N1CCNCC1)C(=O)N1CCC[C@H]1c1ncc(-c2ccc(C#Cc3ccc(-c4cnc([C@@H]5CCCN5C(=O)[C@@H](NC(=O)N5CCNCC5)C(C)C)[nH]4)cc3)cc2)[nH]1` [Compound 967], the pEC50 is 6.00 to 8.00.
On to `COC(=O)N[C@@H](C(=O)N1CCC[C@H]1c1cc(-c2ccc(C#Cc3ccc(-c4cnc([C@@H]5CCCN5C(=O)[C@H](NC(=O)OC)c5ccccc5)[nH]4)cc3)cc2)n[nH]1)c1ccccc1` [Compound 219], for which the pEC50 is above 9.00.
Still for that read-out and setting: the result for `COC(=O)N[C@H](C(=O)N1CCC[C@H]1c1ncc(-c2ccc(C#Cc3ccc(-c4cnc([C@@H]5CCCN5C(=O)[C@@H](c5ccccc5)N5CCCC5)[nH]4)cc3)cc2)[nH]1)C(C)C` [Compound 984] reads above 9.00; that for `[2H]C([2H])([2H])C([2H])(C([2H])([2H])[2H])[C@]([2H])(NC(=O)OC)C(=O)N1CCC[C@H]1c1nc2ccc(C#Cc3ccc4c(c3)CCc3nc([C@@H]5CCCN5C(=O)[C@@H](NC(=O)OC)C(C)C)[nH]c3-4)cc2[nH]1` [Compound 1106], above 9.00.
On the same count and under the same terms, as for `COC(=O)N[C@H](C(=O)N1CCC[C@H]1c1ncc(-c2ccc(C#Cc3ccc(-c4cnc([C@@H]5CCCN5C(=O)[C@@H](NC(=O)N5CCN(CCO)CC5)c5ccccc5)[nH]4)cc3)cc2)[nH]1)C(C)C` [Compound 990], the figure is 8.00 to 9.00; as for `C[C@H](NC(=O)[C@@H]1CCCN1C(=O)[C@H](NC(=O)OC(C)(C)C)c1ccccc1)c1ccc(C#Cc2cnc([C@@H]3CCCN3C(=O)[C@H](NC(=O)OC(C)(C)C)c3ccccc3)[nH]2)cc1` [Compound 130], 6.00 to 8.00.
Take `CC(C)(C)OC(=O)NC(C)(C)C(=O)N1CCC[C@H]1c1ncc(C#Cc2ccc(-c3cnc([C@@H]4CCCN4C(=O)C(C)(C)NC(=O)OC(C)(C)C)[nH]3)cc2)[nH]1` [Compound 106]: the pEC50 was below 6.00.
The same measure, in the same setting: as for `CN1CCN(C(=O)N[C@@H](C(=O)N2CCC[C@H]2c2ncc(C#Cc3ccc(C#Cc4cnc([C@@H]5CCCN5C(=O)[C@H](NC(=O)N5CCN(C)CC5)c5ccccc5)[nH]4)cc3)[nH]2)c2ccccc2)CC1` [Compound 310], the figure is 8.00 to 9.00.
Same read-out and setting: as for `O=C(N[C@@H](C(=O)N1CCC[C@H]1c1ncc(C#Cc2ccc(-c3ccc(-c4cnc([C@@H]5CCCN5C(=O)[C@H](NC(=O)N5CC[C@@H](O)C5)c5ccccc5)[nH]4)cc3)cc2)[nH]1)c1ccccc1)N1CC[C@@H](O)C1` [Compound 763], the figure is above 9.00.
Regarding `CC(C)[C@H](NC(=O)N1CC[C@@H](O)C1)C(=O)N1CCC[C@H]1c1ncc(-c2ccc(C#Cc3ccc(-c4cnc([C@@H]5CCCN5C(=O)[C@@H](NC(=O)N5CC[C@@H](O)C5)C(C)C)[nH]4)cc3)cc2)[nH]1` [Compound 968], the pEC50 was 6.00 to 8.00.
In the case of `CN1CCN(C(=O)N[C@@H](C(=O)N2CCC[C@H]2c2ncc(C#Cc3ccc(-c4cnc([C@@H]5CCCN5C(=O)[C@H](NC(=O)N5CCN(C)CC5)c5ccccc5)[nH]4)cc3)[nH]2)c2ccccc2)CC1` [Compound 118], the pEC50 is 6.00 to 8.00.
For the compound `COC(=O)N[C@H](C(=O)N1CCC[C@H]1c1nc2ccc(C#Cc3ccc(-c4cnc([C@@H]5CCCN5)[nH]4)cc3)cc2[nH]1)C(C)C` [Compound 1055], the pEC50 was 6.00 to 8.00.
Regarding `COC(=O)N[C@H](C(=O)N1CCC[C@H]1c1nc(-c2cnc3cc(C#Cc4ccc(-c5cnc([C@@H]6CCCN6C(=O)[C@@H](NC(=O)OC)C(C)C)[nH]5)cc4)ccc3c2)c[nH]1)C(C)C` [Compound 1088], the pEC50 was 8.00 to 9.00.
In the case of `COC(=O)N[C@H](C(=O)N1CCC[C@H]1c1ncc(C#Cc2ccc(-c3ccc4nc([C@@H]5CCCN5C(=O)[C@@H](NC(=O)OC)C(C)C)[nH]c4c3)nc2)[nH]1)C(C)C` [Compound 1086], the pEC50 is above 9.00.
Still for that read-out and setting: as for `COC(=O)N[C@@H](C(=O)N1CCC[C@H]1c1ncc(-c2ccc(C#Cc3ccc(-c4cnc([C@@H]5CCCN5C(=O)[C@H](NC(=O)N5CC[C@@H](OC)C5)c5ccccc5)[nH]4)cc3)cc2)[nH]1)c1ccccc1` [Compound 271], the figure is above 9.00.
The same measure, in the same setting: the result for `COC(=O)N[C@H](C(=O)N1CCC[C@H]1c1ncc(-c2ccc(C#Cc3ccc(-c4cnc([C@@H]5CCCN5C(=O)[C@@H](NC(=O)OC)C(C)C)[nH]4)cn3)cc2)[nH]1)C(C)C` [Compound 1009] reads above 9.00; that for `CC(C)(C)OC(=O)N[C@@H](C(=O)N1CCC[C@H]1C(=O)Nc1ccc(C#Cc2cnc([C@@H]3CCCN3C(=O)[C@H](NC(=O)OC(C)(C)C)c3ccccc3)[nH]2)cc1)c1ccccc1` [Compound 115], above 9.00.
The same measure, in the same setting: as for `COC(=O)N[C@@H](C(=O)N1CCC[C@H]1c1ncc(-c2ccc(C#Cc3ccc(-c4cnc([C@@H]5CCCN5C(=O)[C@H]5CCCO5)[nH]4)cc3)cc2)[nH]1)c1ccccc1` [Compound 177], the figure is above 9.00.
With `COC(=O)N[C@H](C(=O)N1CCC[C@H]1c1ncc(-c2ccc(C#Cc3ccc(-c4cnc([C@@H]5CCCN5C(=O)[C@@H](c5ccccc5)N5CCCCC5)[nH]4)cc3)cc2)[nH]1)C(C)C` [Compound 986], the pEC50 is above 9.00.
Still for that read-out and setting: the result for `O=C(N[C@@H](C(=O)N1CCC[C@H]1c1cc(-c2ccc(C#Cc3ccc(-c4cnc([C@@H]5CCCN5C(=O)[C@H](NC(=O)[C@@H]5CCCO5)c5ccccc5)[nH]4)cc3)cc2)n[nH]1)c1ccccc1)[C@@H]1CCCO1` [Compound 214] reads above 9.00; that for `CC(C)[C@@H](NC(=O)C1CC1)C(=O)N1CCC[C@H]1C(=O)NCc1ccc(C#Cc2cnc([C@@H]3CCCN3C(=O)[C@H](NC(=O)C3CC3)C(C)C)[nH]2)cc1` [Compound 122], 8.00 to 9.00; that for `COC(=O)N[C@H](C(=O)N1CCC[C@H]1c1ncc(-c2ccc(C#Cc3ccc4nc([C@@H]5CCCN5C(=O)[C@@H](NC(=O)OC)[C@@H](C)OC)[nH]c4c3)cc2)[nH]1)[C@@H](C)OC` [Compound 862], above 9.00.
The same measure, in the same setting: the result for `COC(=O)N[C@H](C(=O)N1CCC[C@H]1c1ncc(-c2ccc(C#Cc3ccc(-c4cnc([C@@H]5CCCN5C(=O)[C@@H](NC(=O)OC)[C@@H](C)OC)[nH]4)cc3)cc2)[nH]1)C(C)C` [Compound 972] reads above 9.00.

The test is the same for the next values; noted with them: Hepatitis C virus, Huh-7, read-out: Inhibition of HCV genotype 1b.
Regarding `CC[C@H](C)[C@H](NC(=O)OC)C(=O)N1CCC[C@H]1c1nc(C(F)(F)F)c(C#Cc2ccc3cc(-c4cnc([C@@H]5CCCN5C(=O)[C@@H](NC(=O)OC)[C@@H](C)OC)[nH]4)ccc3c2)[nH]1` [Compound 1262], the pEC50 is above 9.00.
Still for that read-out and setting: as for `CC[C@H](C)[C@H](NC(=O)OC)C(=O)N1CCC[C@H]1c1ncc(-c2ccc(C#Cc3ccc(-c4cnc([C@@H]5CCCN5C(=O)[C@@H](NC(=O)OC)[C@@H](C)CC)[nH]4)cc3)cc2)[nH]1` [Compound 1216], the figure is above 9.00; as for `COC(=O)N[C@H](C(=O)N1CCC[C@H]1c1ncc(-c2ccc(C#Cc3ccc4c(ccc5nc([C@@H]6CCCN6C(=O)[C@@H](NC(=O)OC)[C@@H](C)OC)[nH]c54)c3)cc2)[nH]1)C(C)C` [Compound 1271], above 9.00.
